Experimental data reported in ChEMBL document CHEMBL1129456, “Synthesis and evaluation of two positron-labeled nitric oxide synthase inhibitors, S-[11C]methylisothiourea and S-(2-[18F]fluoroethyl)isothiourea, as potential positron emission tomography tracers” (J Med Chem, 1996).

Assays:
[1] = target: Nitric oxide synthase, inducible (Homo sapiens, UniProt P35228); assay: The compound was evaluated for the inhibitory potencies using human Inducible nitric oxide synthase (hiNOS)
Nitric oxide synthase 3 = target: T1, Nitric oxide synthase 3 (Homo sapiens, UniProt P29474); assay: The compound was evaluated for the inhibitory potencies using human Endothelial nitric oxide synthase
T1 sequence (P29474 whole entry): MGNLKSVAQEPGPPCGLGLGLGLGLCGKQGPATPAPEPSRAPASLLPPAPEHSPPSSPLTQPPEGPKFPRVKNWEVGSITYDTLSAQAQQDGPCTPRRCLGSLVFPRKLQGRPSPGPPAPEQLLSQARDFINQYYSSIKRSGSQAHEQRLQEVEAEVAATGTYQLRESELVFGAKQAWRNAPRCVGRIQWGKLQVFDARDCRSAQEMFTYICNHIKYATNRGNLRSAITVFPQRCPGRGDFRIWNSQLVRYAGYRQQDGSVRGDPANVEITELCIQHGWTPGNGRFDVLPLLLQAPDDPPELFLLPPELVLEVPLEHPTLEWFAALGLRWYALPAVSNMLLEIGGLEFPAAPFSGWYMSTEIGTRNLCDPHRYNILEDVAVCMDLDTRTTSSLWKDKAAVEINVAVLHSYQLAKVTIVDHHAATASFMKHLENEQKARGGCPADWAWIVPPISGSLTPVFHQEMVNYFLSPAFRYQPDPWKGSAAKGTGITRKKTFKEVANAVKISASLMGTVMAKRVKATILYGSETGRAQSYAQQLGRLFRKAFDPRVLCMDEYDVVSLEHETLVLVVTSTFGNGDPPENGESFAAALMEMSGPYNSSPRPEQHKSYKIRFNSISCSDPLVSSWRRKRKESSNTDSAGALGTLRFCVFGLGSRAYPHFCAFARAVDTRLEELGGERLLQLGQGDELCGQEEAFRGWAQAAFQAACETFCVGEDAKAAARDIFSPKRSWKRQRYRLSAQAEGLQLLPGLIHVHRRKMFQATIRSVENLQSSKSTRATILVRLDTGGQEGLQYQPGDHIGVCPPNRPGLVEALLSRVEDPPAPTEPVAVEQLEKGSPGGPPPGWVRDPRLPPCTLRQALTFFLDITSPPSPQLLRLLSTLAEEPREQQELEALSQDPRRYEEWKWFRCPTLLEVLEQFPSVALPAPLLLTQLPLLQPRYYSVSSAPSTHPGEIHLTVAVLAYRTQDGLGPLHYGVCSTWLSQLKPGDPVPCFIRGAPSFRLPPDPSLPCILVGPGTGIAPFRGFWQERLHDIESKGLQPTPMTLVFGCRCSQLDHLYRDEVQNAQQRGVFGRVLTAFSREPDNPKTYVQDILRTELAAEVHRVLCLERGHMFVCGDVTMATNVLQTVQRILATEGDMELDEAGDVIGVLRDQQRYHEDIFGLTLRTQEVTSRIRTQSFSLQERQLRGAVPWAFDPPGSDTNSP

[2] = Partition coefficient measured by octanol/water extraction at pH 6.8; format: physicochemical
[3] = target: T2, Nitric oxide synthase, inducible (Mus musculus, UniProt P29477); assay: Binding affinity against mouse Inducible nitric oxide synthase (iNOS)
T2 sequence (P29477 whole entry): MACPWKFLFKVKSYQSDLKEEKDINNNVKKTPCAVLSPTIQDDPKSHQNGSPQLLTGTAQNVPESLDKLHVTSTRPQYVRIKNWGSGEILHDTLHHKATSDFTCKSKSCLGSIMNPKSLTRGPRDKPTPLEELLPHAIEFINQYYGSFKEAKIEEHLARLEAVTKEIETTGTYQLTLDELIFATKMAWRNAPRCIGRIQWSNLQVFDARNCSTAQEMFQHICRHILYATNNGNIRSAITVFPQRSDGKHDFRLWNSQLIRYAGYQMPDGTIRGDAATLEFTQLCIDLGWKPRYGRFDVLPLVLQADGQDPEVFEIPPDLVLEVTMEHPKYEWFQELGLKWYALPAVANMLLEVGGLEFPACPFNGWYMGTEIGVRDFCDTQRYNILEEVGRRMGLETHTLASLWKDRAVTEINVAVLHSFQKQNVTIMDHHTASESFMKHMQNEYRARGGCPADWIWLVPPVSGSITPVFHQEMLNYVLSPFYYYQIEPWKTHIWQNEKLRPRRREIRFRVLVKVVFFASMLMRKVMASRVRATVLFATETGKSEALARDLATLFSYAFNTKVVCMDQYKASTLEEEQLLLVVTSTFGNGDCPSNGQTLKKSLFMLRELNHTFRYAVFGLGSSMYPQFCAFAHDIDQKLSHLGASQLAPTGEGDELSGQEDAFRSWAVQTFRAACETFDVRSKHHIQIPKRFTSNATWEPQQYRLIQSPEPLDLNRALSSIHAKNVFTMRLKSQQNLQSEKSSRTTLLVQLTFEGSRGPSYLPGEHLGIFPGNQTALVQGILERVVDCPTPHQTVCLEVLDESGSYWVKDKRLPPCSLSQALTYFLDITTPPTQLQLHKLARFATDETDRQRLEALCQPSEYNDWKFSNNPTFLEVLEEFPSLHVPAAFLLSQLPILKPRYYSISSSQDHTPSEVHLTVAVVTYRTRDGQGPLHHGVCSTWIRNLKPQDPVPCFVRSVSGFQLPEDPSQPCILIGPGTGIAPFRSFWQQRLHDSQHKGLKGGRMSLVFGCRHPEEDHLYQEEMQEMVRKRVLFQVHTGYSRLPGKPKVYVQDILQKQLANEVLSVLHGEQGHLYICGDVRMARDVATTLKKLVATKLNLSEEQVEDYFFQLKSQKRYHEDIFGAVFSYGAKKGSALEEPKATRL

Rattus norvegicus = organism: Rattus norvegicus; assay: Maximum enzyme concentration from lipopolysaccharide treated rat liver.; format: functional

Chain of Nitric oxide synthase, inducible (Homo sapiens, UniProt P35228) (P35228 whole entry): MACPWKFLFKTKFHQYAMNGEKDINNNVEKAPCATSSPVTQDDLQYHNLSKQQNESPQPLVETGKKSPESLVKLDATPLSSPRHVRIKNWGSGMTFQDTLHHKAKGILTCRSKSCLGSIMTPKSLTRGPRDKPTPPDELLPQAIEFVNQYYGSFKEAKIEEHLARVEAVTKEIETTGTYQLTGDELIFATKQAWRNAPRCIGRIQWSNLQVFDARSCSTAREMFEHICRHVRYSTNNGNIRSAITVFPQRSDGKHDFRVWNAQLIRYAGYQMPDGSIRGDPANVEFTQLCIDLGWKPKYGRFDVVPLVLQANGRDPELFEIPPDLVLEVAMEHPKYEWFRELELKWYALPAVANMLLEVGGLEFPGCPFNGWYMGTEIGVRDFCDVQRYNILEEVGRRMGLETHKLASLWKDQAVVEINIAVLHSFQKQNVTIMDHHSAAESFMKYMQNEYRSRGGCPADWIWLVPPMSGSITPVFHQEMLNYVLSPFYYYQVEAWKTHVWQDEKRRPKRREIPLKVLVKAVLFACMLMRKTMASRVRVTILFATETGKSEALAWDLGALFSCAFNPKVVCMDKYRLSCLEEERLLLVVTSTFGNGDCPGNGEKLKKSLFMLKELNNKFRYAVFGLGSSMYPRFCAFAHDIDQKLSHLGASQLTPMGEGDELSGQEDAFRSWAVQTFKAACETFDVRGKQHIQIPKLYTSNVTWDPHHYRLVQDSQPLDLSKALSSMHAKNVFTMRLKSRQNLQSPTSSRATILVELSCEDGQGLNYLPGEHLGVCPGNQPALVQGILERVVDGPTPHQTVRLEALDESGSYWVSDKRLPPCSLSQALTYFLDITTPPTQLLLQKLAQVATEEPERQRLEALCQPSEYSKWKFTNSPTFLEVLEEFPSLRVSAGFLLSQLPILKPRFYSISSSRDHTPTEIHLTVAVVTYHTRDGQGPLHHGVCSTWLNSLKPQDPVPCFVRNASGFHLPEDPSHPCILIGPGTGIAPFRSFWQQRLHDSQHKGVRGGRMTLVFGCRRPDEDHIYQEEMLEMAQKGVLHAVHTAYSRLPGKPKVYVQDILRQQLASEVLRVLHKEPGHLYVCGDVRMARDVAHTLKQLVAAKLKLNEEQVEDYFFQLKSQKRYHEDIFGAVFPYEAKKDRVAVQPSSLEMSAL

Structure (SMILES)	IC50 [1]	IC50 (Nitric oxide synthase 3)	logD [2]	Ki [3]	Bmax (Rattus norvegicus)
N=C(N)SCCF	140 nM	1260 nM	–	–	–
[11CH3]SC(=N)N	–	–	-0.04	–	–
CCSC(=N)N [ETHYLISOTHIOUREA]	160 nM	1300 nM	–	5.2 nM	85 nM
